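A five-concentration, 48-hour dose response in 96-well plates underlies each endpoint, interpolated linearly between surrounding concentrations. The concentration for full growth arrest is given as TGI.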
What was measured:
Assay in all cases: growth of human tumour cells (NCI), 48 h
[1] = test system: TK-10 renal
[2] = test system: UO-31 renal
[3] = test system: MDA-N
[4] = test system: T-47D breast
[5] = test system: MCF7 breast
[6] = test system: HS 578T breast
[7] = test system: MDA-MB-231 breast
[8] = test system: HCC-2998 colon
[9] = test system: SW-620 colon
[10] = test system: HCT-116 colon
[11] = test system: SK-MEL-28 melanoma
[12] = test system: LOX IMVI melanoma
[13] = test system: PC-3 prostate
[14] = test system: MALME-3M melanoma
[15] = test system: CCRF-CEM leukemia
[16] = test system: OVCAR-4 ovarian
[17] = test system: OVCAR-5 ovarian

Compound	TGI [1]	TGI [2]	TGI [3]	TGI [4]	TGI [5]	TGI [6]	TGI [7]	TGI [8]	TGI [9]	TGI [10]	TGI [11]	TGI [12]	TGI [13]	TGI [14]	TGI [15]	TGI [16]	TGI [17]
C=CCOCn1ccc(=O)[nH]c1=O	> 100 µM	> 100 µM	> 100 µM	> 100 µM	> 100 µM	> 100 µM	> 100 µM	> 100 µM	> 100 µM	> 100 µM	> 100 µM	> 100 µM	> 100 µM	> 100 µM	> 100 µM	–	–
CC(C)CC1c2[nH]c3ccccc3c2C[C@H]2C(=O)NC(CCC(=O)OC(C)(C)C)C(=O)N12 (stereo not given in full)	74 µM	> 100 µM	> 100 µM	49.7 µM	> 100 µM	54.2 µM	79.1 µM	–	> 100 µM	> 100 µM	> 100 µM	60.6 µM	69 µM	62.2 µM	–	> 100 µM	> 100 µM
CC(C)/C=N\n1c(N)c(C#N)c(C#N)c1C(C)C	> 100 µM	64.2 µM	76.6 µM	66.3 µM	> 100 µM	95.3 µM	> 100 µM	36.4 µM	> 100 µM	> 100 µM	–	97.8 µM	47.2 µM	98.1 µM	> 100 µM	84.9 µM	> 100 µM
CNC(=O)c1n[nH][nH]c1=O	–	> 100 µM	> 100 µM	> 100 µM	> 100 µM	> 100 µM	> 100 µM	> 100 µM	> 100 µM	> 100 µM	> 100 µM	> 100 µM	> 100 µM	> 100 µM	> 100 µM	–	> 100 µM
O=C1N=C(c2ccccc2)O/C1=C\c1ccccc1	> 100 µM	> 100 µM	> 100 µM	> 100 µM	> 100 µM	> 100 µM	> 100 µM	> 100 µM	> 100 µM	> 100 µM	> 100 µM	> 100 µM	> 100 µM	> 100 µM	–	> 100 µM	> 100 µM
CC1(O)/C(=N/O)CC2CC1C2(C)C (stereo not given)	> 100 µM	> 100 µM	> 100 µM	> 100 µM	> 100 µM	> 100 µM	> 100 µM	> 100 µM	> 100 µM	–	> 100 µM	> 100 µM	–	> 100 µM	> 100 µM	> 100 µM	> 100 µM
CC1N(C)C(=O)OC12CCN(CCCC(=O)c1ccc(F)cc1)CC2 (stereo not given)	> 100 µM	> 100 µM	> 100 µM	> 100 µM	> 100 µM	> 100 µM	> 100 µM	–	> 100 µM	> 100 µM	> 100 µM	> 100 µM	> 100 µM	> 100 µM	> 100 µM	–	> 100 µM
OC1CC(O)c2c(Cl)sc(Cl)c21 (stereo not given)	82.3 µM	77.5 µM	> 100 µM	> 100 µM	> 100 µM	82.4 µM	> 100 µM	–	> 100 µM	> 100 µM	> 100 µM	> 100 µM	–	> 100 µM	> 100 µM	> 100 µM	> 100 µM
COc1cc2cc(C(=O)N3CC(CCl)c4ccc(NCCN)cc43)[nH]c2c(OC)c1OC (stereo not given)	6.08 µM	0.382 µM	0.432 µM	5.19 µM	3.45 µM	3.37 µM	1.9 µM	0.709 µM	–	> 32.7 µM	1.4 µM	0.881 µM	2.07 µM	0.391 µM	2.24 µM	3.06 µM	6.03 µM
NC1=NC(OCC2(CO)CCC2)C=C(NCC2(CO)CCC2)N1 (stereo not given)	–	> 100 µM	> 100 µM	> 100 µM	> 100 µM	> 100 µM	> 100 µM	> 100 µM	> 100 µM	> 100 µM	> 100 µM	> 100 µM	> 100 µM	> 100 µM	> 100 µM	> 100 µM	> 100 µM
O=C(O)CN1CCN(CC(=O)O)CCN(CC(=O)O)CCN(CC(=O)O)CC1	> 100 µM	> 100 µM	> 100 µM	> 100 µM	> 100 µM	> 100 µM	> 100 µM	> 100 µM	> 100 µM	> 100 µM	–	> 100 µM	> 100 µM	–	> 100 µM	> 100 µM	> 100 µM
Cc1c2c(n(CCc3ccccc3)c1C)NN=C(C#N)S2(=O)=O	> 100 µM	> 100 µM	> 100 µM	> 100 µM	> 100 µM	> 100 µM	> 100 µM	> 100 µM	> 100 µM	> 100 µM	> 100 µM	> 100 µM	> 100 µM	> 100 µM	–	> 100 µM	> 100 µM
CC1OC(O[C@H]2CC[C@]3(C)[C@H]4CC=C5[C@@H]6[C@@H](C)[C@H](C)CC[C@]6(C(=O)O)CC[C@@]5(C(=O)O)[C@]4(C)CC[C@H]3C2(C)C)C(O)C(O)C1O (stereo not given in full)	> 75 µM	> 75 µM	> 75 µM	> 75 µM	> 75 µM	> 75 µM	> 75 µM	> 75 µM	> 75 µM	> 75 µM	–	> 75 µM	> 75 µM	–	> 75 µM	> 75 µM	> 75 µM
C[Si](C)(C)OC1c2[nH]c3ccccc3c2CN2C(=O)CCC12 (stereo not given)	> 100 µM	> 100 µM	> 100 µM	> 100 µM	> 100 µM	> 100 µM	> 100 µM	> 100 µM	> 100 µM	> 100 µM	> 100 µM	> 100 µM	> 100 µM	–	–	> 100 µM	> 100 µM
CSc1cc(Cl)c(C)cc1S(=O)(=O)NC(=O)NNc1ccc(F)c(Cl)c1	–	–	> 100 µM	> 100 µM	> 100 µM	> 100 µM	> 100 µM	> 100 µM	> 100 µM	> 100 µM	> 100 µM	> 100 µM	> 100 µM	> 100 µM	> 100 µM	> 100 µM	> 100 µM
CC1=C(OC2OC(CO)C(O)C(O)C2O)C(=O)C[C@H]2C1=CC[C@@H]1[C@@]2(C)C(=O)C[C@]2(C)[C@@H]([C@@](C)(O)C(=O)CCC(C)(C)O)[C@H](O)C[C@@]12C (stereo not given in full)	> 100 µM	> 100 µM	> 100 µM	> 100 µM	> 100 µM	–	> 100 µM	> 100 µM	> 100 µM	> 100 µM	> 100 µM	> 100 µM	> 100 µM	> 100 µM	> 100 µM	> 100 µM	> 100 µM
CCOC(=O)c1ccc(C(=O)/C(C#N)=C2\CCCN2)[nH]1	–	> 100 µM	> 100 µM	> 100 µM	> 100 µM	> 100 µM	> 100 µM	> 100 µM	> 100 µM	> 100 µM	> 100 µM	> 100 µM	> 100 µM	> 100 µM	> 100 µM	> 100 µM	> 100 µM
Cc1sc2nc3n(c(=O)c2c1C)N=C(c1ccc(Cl)cc1)CS3	–	> 100 µM	> 100 µM	> 100 µM	> 100 µM	> 100 µM	> 100 µM	> 100 µM	> 100 µM	> 100 µM	> 100 µM	> 100 µM	> 100 µM	> 100 µM	> 100 µM	> 100 µM	> 100 µM
CN(C)CCO/N=C1/C=C2CC[C@H]3[C@@H]4CC[C@H](O)[C@@]4(C)CC[C@@H]3[C@@]2(C)CC1	28.6 µM	28.2 µM	11.2 µM	97.9 µM	86 µM	54.1 µM	44.4 µM	28.1 µM	36.1 µM	31.5 µM	35.1 µM	60.2 µM	> 100 µM	–	> 21.6 µM	–	> 100 µM
CC(=O)Nc1ccc2c(C)c3c4ccccc4n(C)c3nc2n1	94.8 µM	32.3 µM	34.5 µM	> 100 µM	96.7 µM	50.2 µM	41.2 µM	30.9 µM	46.6 µM	44.6 µM	–	34.2 µM	> 100 µM	–	80.5 µM	–	51.6 µM
O=c1c2cccnc2nc2ccc3c[nH][nH]c3c12	> 10 µM	–	> 10 µM	> 10 µM	> 10 µM	> 10 µM	> 10 µM	> 10 µM	> 10 µM	> 10 µM	> 10 µM	> 10 µM	> 10 µM	> 10 µM	> 10 µM	> 10 µM	> 10 µM
Cc1ccc(S(=O)(=O)NNC(=S)Nc2cccc3ccccc23)cc1	> 100 µM	> 100 µM	> 100 µM	> 100 µM	> 100 µM	> 100 µM	> 100 µM	> 100 µM	> 100 µM	> 100 µM	> 100 µM	–	> 100 µM	> 100 µM	> 100 µM	66.8 µM	> 100 µM
O=S1(=O)CCN(Cc2ccccc2)/C1=N\S(=O)(=O)c1ccc(Cl)cc1	31 µM	32.5 µM	32.2 µM	39.5 µM	42.4 µM	73.8 µM	> 100 µM	34.5 µM	36.7 µM	33 µM	32.8 µM	33.5 µM	36.7 µM	–	85.5 µM	36.2 µM	33.4 µM
